How the values were obtained:
[1] = system: P. falciparum male gametocytes; assay: P. falciparum Dual Gamete Formation Assay (PfDGFA), male readout (exflagellation); format: cell-based, Plasmodium falciparum NF54; details: for Average inhibition male (%): average of replicates; for % inhibition male (individual replicates) R1: replicate R1; for % inhibition male (individual replicates) R3: replicate R3; for % inhibition male (individual replicates) R4: replicate R4; for Activity: hit = >50% inhibition in male or female readout in at least 3 replicates, 0 = no class assigned
Procedure, shortened: (§1)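 Read-outs are automated image counts of exflagellation centres (brightfield, 10 frames over 1 s) and Pfs25-positive female gametes (Cy3 fluorescence).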

[2] = system: P. falciparum female gametocytes; assay: P. falciparum Dual Gamete Formation Assay (PfDGFA), female readout (Pfs25-positive female gametes); format: cell-based, Plasmodium falciparum NF54; details: for Average inhibition female (%): average of replicates; for % inhibition female (individual replicates) R1: replicate R1; for % inhibition female (individual replicates) R3: replicate R3; for % inhibition female (individual replicates) R4: replicate R4
Procedure, shortened: as §1

[3] = 2µM, 24h preincubation with gametocytes prior to induction of gametogenesis
[4] = 2µM, 24h preincubation, hits selected on >50% inhibition in the male readout across replicates
[5] = PfDGFA at 2µM, 24h preincubation
[6] = 2µM, 24h preincubation, hits selected on >50% inhibition in the female readout across replicates
[7] = 2µM, 24h preincubation, number of replicates with >50% inhibition in the male readout
[8] = 2µM, 24h preincubation, number of replicates with >50% inhibition in the female readout
[9] = PfDGFA at 2µM, 24h preincubation with gametocytes prior to induction of gametogenesis
[10] = PfDGFA at 2µM, 24h preincubation with gametocytes

Row | Compound | Average inhibition male (%) [1, 3] [%] | % inhibition male (individual replicates) R1 [1, 3] [%] | % inhibition male (individual replicates) R3 [1, 3] [%] | % inhibition male (individual replicates) R4 [1, 3] [%] | HitlevelM [1, 4] | Activity [1, 5] | Average inhibition female (%) [2, 3] [%] | % inhibition female (individual replicates) R1 [2, 3] [%] | % inhibition female (individual replicates) R3 [2, 3] [%] | % inhibition female (individual replicates) R4 [2, 3] [%] | HitlevelF [2, 6] | other results
1 | Cc1ccc(N2C(N)=NC(N)=NC2(C)C)cc1Cl.Cl [TCMDC-137708] | -13.6 | 11.4 | -5.0 | -55.8 | 0 | 0 | 15.0 | 12.7 | 7.1 | 19.9 | 0 | –
2 | CCCCCc1ccc(N2C(N)=NC(N)=NC2(C)C)cc1.Cl [TCMDC-137709] | 2.5 | 18.2 | 6.4 | -27.8 | 0 | 0 | 8.1 | 15.2 | -7.7 | 22.0 | 0 | –
3 | CCCCCOc1ccc(N2C(N)=NC(N)=NC2(C)C)cc1.Cl [TCMDC-137711] | -17.3 | 6.1 | -21.6 | -48.5 | 0 | 0 | 10.0 | 16.6 | -26.0 | 23.4 | 0 | –
4 | CC(C)(C)c1ccc(N2C(N)=NC(N)=NC2(C)C)cc1.Cl [TCMDC-137713] | -3.6 | 17.2 | 2.2 | -36.5 | – | – | 20.6 | 16.4 | 30.6 | 16.4 | – | HitlevelM [1, 7]: 0; HitlevelF [2, 8]: 0
5 | CCc1ccc(N2C(N)=NC(N)=NC2(C)C)cc1.Cl [TCMDC-137714] | 9.1 | 34.5 | 9.3 | -34.5 | 0 | 0 | 7.9 | 15.9 | 0.5 | 12.9 | 0 | –
6 | CCCC(C)c1ccc(N2C(N)=NC(N)=NC2(C)C)cc1.Cl (stereo not shown) [TCMDC-137715] | – | – | – | – | – | – | – | – | – | – | – | % inhibition male (individual replicates) R1 [1, 9]: 8.4%; % inhibition male (individual replicates) R4 [1, 9]: -43.6%; Average inhibition male (%) [1, 5]: -6.3%; % inhibition female (individual replicates) R1 [2, 9]: -4.9%; % inhibition female (individual replicates) R3 [2, 9]: 0.05%; % inhibition female (individual replicates) R4 [2, 9]: 1.4%; Average inhibition female (%) [2, 5]: -2.9%
7 | CN1CCN(CCNc2c3ccccc3nc3c2ccc2ccccc23)CC1.Cl [TCMDC-137723] | -12.0 | -27.6 | -0.85 | 0.03 | – | – | 18.4 | 9.6 | 26.6 | 23.3 | – | HitlevelM [1, 7]: 0; HitlevelF [2, 8]: 0
8 | COc1ccc2nc(-c3ccccc3)cc(NCCCNc3cc(-c4ccccc4)nc4ccc(OC)cc34)c2c1.Cl [TCMDC-137734] | 9.4 | 15.3 | -6.1 | 18.2 | 0 | 0 | 5.7 | 14.1 | -18.5 | 23.4 | 0 | –
9 | Cl.c1ccc2c(NCCCCCCCCCNc3ccnc4ccccc34)ccnc2c1 [TCMDC-137750] | 54.0 | 40.7 | 8.2 | 84.2 | – | – | 39.1 | 35.8 | 19.4 | 48.2 | – | HitlevelM [1, 7]: 2; HitlevelF [2, 8]: 1
10 | COCCOc1nc(N)nc2ncc(Cc3cc(OC)ccc3OC)c(C)c12 [TCMDC-137754] | – | – | – | – | – | – | – | – | – | – | – | % inhibition male (individual replicates) R1 [1, 9]: 18.4%; % inhibition male (individual replicates) R3 [1, 9]: 27.4%; % inhibition male (individual replicates) R4 [1, 9]: 26.2%; Average inhibition male (%) [1, 5]: 25.9%; % inhibition female (individual replicates) R1 [2, 9]: 1.5%; % inhibition female (individual replicates) R3 [2, 9]: -13.9%; % inhibition female (individual replicates) R4 [2, 9]: 2.0%; Average inhibition female (%) [2, 5]: -4.6%
11 | OCc1ccc2nc3c(cc2c1)-c1cccc2cccc-3c12 [TCMDC-137756] | – | – | – | – | – | – | – | – | – | – | – | % inhibition male (individual replicates) R1 [1, 9]: -3.7%; % inhibition male (individual replicates) R3 [1, 9]: 13.3%; % inhibition male (individual replicates) R4 [1, 9]: 12.3%; Average inhibition male (%) [1, 5]: 6.9%; % inhibition female (individual replicates) R1 [2, 9]: 4.5%; % inhibition female (individual replicates) R3 [2, 9]: -23.9%; % inhibition female (individual replicates) R4 [2, 9]: -12.7%; Average inhibition female (%) [2, 5]: -11.0%
12 | COc1ccc(O)c(Cc2cnc3nc(N)[nH]c(=O)c3c2C)c1.CS(=O)(=O)O [TCMDC-137766] | – | – | – | – | – | – | – | – | – | – | – | % inhibition male (individual replicates) R1 [1, 9]: 13.3%; % inhibition male (individual replicates) R3 [1, 9]: -7.3%; % inhibition male (individual replicates) R4 [1, 9]: -9.1%; Average inhibition male (%) [1, 5]: 1.5%; % inhibition female (individual replicates) R1 [2, 9]: 3.3%; % inhibition female (individual replicates) R3 [2, 9]: -13.8%; % inhibition female (individual replicates) R4 [2, 9]: -13.6%; Average inhibition female (%) [2, 5]: -2.6%
13 | COc1ccccc1N1CCN(CCCCNC(=O)c2ccc(NC(=O)c3ccc(OC(F)(F)F)cc3)cc2)CC1.Cl [TCMDC-137780] | -3.4 | -7.9 | -14.4 | 10.6 | 0 | 0 | 5.4 | 10.5 | -10.0 | 19.1 | 0 | –
14 | Cc1cc(N)nc2ccc(-c3ccc(CCN)cc3)cc12 [TCMDC-137786] | – | – | – | – | – | – | – | – | – | – | – | Average inhibition male (%) [1, 10]: 75.8%; % inhibition male (individual replicates) R1 [1, 10]: 70.7%; % inhibition male (individual replicates) R4 [1, 10]: 86.5%; HitlevelM ([1]; number of replicates with >50% inhibition in the male readout, 2µM): 3; Average inhibition female (%) [2, 10]: 37.0%; % inhibition female (individual replicates) R1 [2, 10]: 36.7%; % inhibition female (individual replicates) R3 [2, 10]: 37.4%; % inhibition female (individual replicates) R4 [2, 10]: 36.1%; HitlevelF ([2]; number of replicates with >50% inhibition in the female readout, 2µM): 0
